Values after ≈ are worked out from the molar mass of the structure shown. Like-named read-outs stand apart in the source and are kept apart here. Where a SMILES comes first, the peptide text is derived from it. [ ]: non-standard residue; d: D form. The star is where a group is joined. Pentanoyl = CCCCC(=O)*; AEEA = NCCOCCOCC(=O)O; βAla = NCCC(=O)O

The results in this text go back to publication PMC8269107, “Lipidation of Temporin-1CEb Derivatives as a Tool for Activity Improvement, Pros and Cons of the Approach” (International Journal of Molecular Sciences, 2021).

In one assay the test system is C.parapsilosis CCM 8260. Briefly: MIC, broth microdilution. Type of assay: cell-based, Candida parapsilosis. To be noted: C.parapsilosis CCM 8260, 24 h. From the text: (§1) Escherichia coli (PCM 2057 = ATCC 25922), Staphylococcus aureus (PCM 2054 = ATCC 25923), Staphylococcus epidermidis (PCM 2118 = ATCC 14990), Bacillus subtilis (PCM 2224 = ATCC 9799), Bacillus cereus (PCM 482 = ATCC 10702) and Pseudomonas aeruginosa (PCM 499 = ATCC 10145) were obtained from the Polish Collection of Microorganisms. Fungi strains Candida albicans (CCM 8186 = CNTC 49/64), Candida glabrata (CCM 8270 = ATCC 90030), Candida parapsilosis (CCM 8260 = ATCC 22019) and Candida krusei (CCM 8271 = ATCC 6258) were acquired from the Czech Collection of Microorganisms. S. aureus USA300 (wild type strain), the reference strain of Klebsiella pneumoniae (ATCC 13883) and clinical isolates of Pseudomonas aeruginosa (PA1, PA2) collected from nonrelated patients admitted to the Stefan Zeromski Specialist Municipal Hospital in Krakow (Poland) were kindly provided by the research group of the Department of Microbiology, Faculty of Biochemistry, Biophysics and Biotechnology, Jagiellonian University, Krakow, Poland.
(§2) Luria-Bertani broth (LB) and Sabouraud Dextrose broth (SB) (Biocorp, Poland) were used for cultivation of bacteria and fungi strains, respectively. The antimicrobial activity of the peptides were analyzed through determination of MIC (minimal inhibitory concentration) parameters according to Clinical and Laboratory Standards (CLSI) guidelines developed for aerobic bacteria and yeasts, respectively. Mueller-Hinton broth (MHB) was used as the working medium for all bacterial strains, while in the case of fungi, RPMI-1640 (with L-glutamine, without sodium bicarbonate) growth medium buffered with MOPS (morpholinepropanesulfonic acid) and supplemented with 2% glucose was used. Inoculum was prepared from freshly grown cultures of microorganisms at their exponential phase of growth. […] Plates were then incubated for 24 h at 37 °C in the case of bacteria and at 35 °C in the case of fungi. After that time, absorbance was read at 590 nm with a Perkin Elmer plate reader. Cultures without peptide were treated as positive control, while uninoculated media were defined as negative control. All measurements were run at least in triplicate.
Background: Broth dilution looks for growth in wells or tubes with falling amounts of substance.

The subject of assay [1] is C. albicans (CCM 8186) biofilm. Kind of assay: Biofilm eradication assay, pre-formed 24 h old biofilm (MTT). The class given is cell-based, Candida albicans. Particulars: C. albicans pre-formed 24 h old biofilm, 24 h treatment. As to the method:
In the case of yeasts, the overnight culture of C. albicans in Sabouraud dextrose broth (SB) was used for inoculum preparation. Similar to above, 5 mL of 24 h culture was centrifuged, washed with PBS and then suspended in sterile RPMI-1640 medium (with L-glutamine, without sodium bicarbonate) supplemented with 2% glucose (RPMI-1640/+G) yielding the amount of about 1 × 10^7 cells per ml. Subsequently, 200 µL of yeast suspension was transferred into each well of a microtiter plate, and it was incubated stationary for the next 24 h at 35 °C.
After that, each well of the plates containing bacterial or fungi biofilm was washed three times with PBS in order to remove all non-adherent cells. Then, peptide solutions of 200 µL ranging from 50 to 0,39 µg/mL prepared in TSB +/G in the case of experiments on S. aureus biofilm, and (RPMI-1640/+G) in the case of C. alibcans, were prepared and transferred into the microtiter plates. After the addition of the peptides, the experiments were continued for the next 24 h.
(§3) The reduction in biofilm viability was analyzed by means of MTT assay. Briefly, 20 μL of MTT solution (5 mg/mL in PBS) was added to prewashed wells with exchanged medium (180 μL of fresh medium) wells containing bacterial/yeast biofilms. Plates were then incubated in the dark for the next 3 h at 37 °C. After that time, the medium was replaced with 6 mM HCl in isopropanol and, when the reduced MTT was fully dissolved, the plates were read at 570 nm. Activity against fully developed 24 h old biofilm was described as biofilm eradication concentration (BEC50 expressed in µg/mL), which corresponded to the concentration of the compound able to reduce 50% of biofilm viability compared with the growth control.

A further assay relates to S. aureus USA300. The class given is cell-based, Staphylococcus aureus.
Excerpt: as §1, §2

Assay [2] concerns S. aureus (PCM 2054) biofilm. Briefly: Biofilm inhibition assay (MTT). The class given is cell-based, Staphylococcus aureus. Particulars: S. aureus biofilm development, 24 h post-inoculation. As to the method:
(§4) In the case of bacteria, an overnight culture of S. aureus in Tryptic Soy Broth (TSB) supplemented with 2% glucose (TSB/+G) was used to prepare inoculum for the experiments. Briefly, 5 mL of 24 h culture was centrifuged at 5000× g, washed with sterile PBS and suspended in a fresh 2 × concentrated TSB/+G. In the case of yeasts, the overnight culture of C. albicans in Sabouraud dextrose broth (SB) was used for inoculum preparation. Similar to above, 5 mL of 24 h culture was centrifuged, washed with PBS and then suspended in sterile 2 × concentrated RPMI-1640 medium (with L-glutamine, without sodium bicarbonate) supplemented with 2% glucose (RPMI-1640/+G). In both cases, the cell concentration of the inoculum was about 1 × 10^7 cells per ml.
(§5) For the determination of the inhibitory concentration that reduced biofilm development by 50% (BIC50^, expressed in µg/mL), 100 µL inoculum in 2 × concentrated RPMI-1640/+G medium (in the case of C. albicans) or 2 x concentrated TSB/+G broth (in the case of S. aureus) was transferred to each well of 96-well plates containing 100 µL of serially diluted in water tested compounds. The final concentrations of the compounds were the same as those used in MIC determination studies. The 96-well plates were then incubated for 24 h at 37 °C and 35 °C in the case of bacteria and fungi, respectively. Viability of the microorganisms in the presence of the tested compounds was analyzed by means of MTT assay.
as §3

For a further assay, the system named is K.pneumoniae ATCC 13883. The class given is cell-based, Klebsiella pneumoniae.
Excerpt: as §1, §2

For assay [3], the system named is C. albicans (CCM 8186) biofilm. Briefly: Biofilm inhibition assay (MTT). Particulars: C. albicans biofilm development, 24 h post-inoculation. The class given is cell-based, Candida albicans. As to the method:
as §4, §5, §3

The next assay deals with S. aureus PCM 2054. Kind of assay: MIC, broth microdilution. The class given is cell-based, Staphylococcus aureus. Particulars: S. aureus PCM 2054, standard Mueller-Hinton broth, 24 h.
Excerpt: as §1, §2

Another assay concerns P. aeruginosa PCM 499. Kind of assay: MIC, broth microdilution. Type of assay: cell-based, Pseudomonas aeruginosa. To be noted: P. aeruginosa PCM 499, 24 h.
Excerpt: as §1, §2

On to `CC[C@H](C)[C@H](NC(=O)COCCOCCNC(=O)[C@H](Cc1c[nH]cn1)NC(=O)CCN)C(=O)N[C@@H](CCCCN)C(=O)N[C@@H](CCCCN)C(=O)N[C@H](C(=O)N[C@@H](CC(C)C)C(=O)N[C@@H](CO)C(=O)N[C@@H](CCCCN)C(=O)N[C@H](C(=O)N[C@@H](CCCCN)C(=O)N[C@@H](CCCCN)C(=O)N[C@@H](CC(C)C)C(=O)N[C@@H](CC(C)C)C(N)=O)[C@@H](C)CC)[C@@H](C)CC` [CAR-PEG-DK5] (H-[βAla]H[AEEA]IKKILSKIKKLL-NH2; N-terminus and C-terminus assumed), for which the MIC100 in the assay on C.parapsilosis CCM 8260 is 31.3 µg/mL (≈ 17.6 µM); with S. aureus USA300, over 200 µg/mL; in the assay with K.pneumoniae ATCC 13883 (ATCC 13883, 24 h), over 200 µg/mL; against S. aureus PCM 2054, over 50 µg/mL; in the assay with P. aeruginosa PCM 499, 50 µg/mL (≈ 28.1 µM). The same molecule yielded a BEC50 in assay [1] of over 50 µg/mL. The BIC50 in assay [2] was over 50 µg/mL; in assay [3] it was 50 µg/mL.

As to `CCCCC(=O)N[C@H](C(=O)N[C@@H](CCCCN)C(=O)N[C@@H](CCCCN)C(=O)N[C@H](C(=O)N[C@@H](CC(C)C)C(=O)N[C@@H](CO)C(=O)N[C@@H](CCCCN)C(=O)N[C@H](C(=O)N[C@@H](CCCCN)C(=O)N[C@@H](CCCCN)C(=O)N[C@@H](CC(C)C)C(=O)N[C@@H](CC(C)C)C(N)=O)[C@@H](C)CC)[C@@H](C)CC)[C@@H](C)CC` [Compound C5-DK5] (Pentanoyl-IKKILSKIKKLL-NH2), the MIC100 came to 3.13 µg/mL (≈ 2.08 µM) against C.parapsilosis CCM 8260; 25 µg/mL (≈ 16.6 µM) with S. aureus USA300; 50 µg/mL (≈ 33.2 µM) against K.pneumoniae ATCC 13883 (K.pneumoniae ATCC 13883); 12.5 µg/mL (≈ 8.29 µM) against S. aureus PCM 2054; 25 µg/mL (≈ 16.6 µM) in the assay on P. aeruginosa PCM 499. This molecule also returned a BEC50 in assay [1] of 12.5 µg/mL. Also, the BIC50 is 6.25 µg/mL in assay [2] and 10 µg/mL in assay [3].
